Laboratory results taken from patent USRE43712E1, “Methods for assaying for antidepressant therapy markers” (The Board of Trustees of the Uniersity of Illinois, priority 2000, dated 2012).
Marks after values point to notes of the source that are not given here.

What was measured:
[1] = tested on: adenylyl cyclase; assay: Adenylyl cyclase activity in sucrose density gradient fractions of Triton X-100-solubilized C6-2B cells; format: cell-based; settings: 10 μM desipramine-treated C6-2B cells
Procedure: C6-2B cells treated as described above were used to prepare Triton-insoluble, caveolin-enriched membrane fractions by the procedure of Li et al. [J. Biol. Chem., 270:15693-15701; 1995] with minor modifications. In brief, C6-2B cells were harvested into 0.75 ml of HEPES buffer (10 mM HEPES, pH 7.5, 150 mM NaCl, 1 mM DTT, 0.3 mM PMSF) containing 1% Triton X-100. Homogenization was carried out with 10 strokes of a Potter-Elvehjem homogenizer. The homogenate was adjusted to 40% sucrose by the addition of an equal volume of 80% sucrose prepared in HEPES buffer and placed at the bottom of an ultracentrifuge tube. A step gradient containing 30, 15, and 5% sucrose was formed above the homogenate and centrifuged at 50,000 rpm for 20 h in an SW65 rotor (240,000 g). Two or three opaque bands confined between the 15 and 30% sucrose layers were harvested, diluted threefold with HEPES buffer, and pelleted in a microcentrifuge at 16,000 g. The pellet was resuspended in HEPES buffer and identified as the Triton-insoluble fraction. The 40% sucrose region of the gradient was saved as the Triton-soluble fraction. In separate experiments, the same conditions were used, but instead of isolating the three opaque bands, 100-μl fractions were collected and assayed for Gs content and adenylyl cyclase activity.
Adenylyl cyclase was assayed as described previously [Rasenick et al., Brain Res., 488:105-113; 1989]. […]

[2] = tested on: Gsα; assay: Sequential detergent extraction (Triton X-100 / Triton X-114) of Gsα from C6-2B glioma membranes; format: cell-based; settings: C6-2B cells, 10 μM, 3 days; mean ± SEM of 4-5 experiments
Procedure: C6-2B cells (between passages 20 and 40) were grown in 175-cm^2 flasks in Dulbecco's modified Eagle medium, 4.5 g of glucose/L, 10% bovine serum, in a 10% CO2 atmosphere, at 37° C. for 3 days after splitting. […] Male Sprague-Dawley rats weighing 150-200 g were fed ad libitum and maintained in a 12-h light/dark cycle. […] 36:803-838, 1989]. […] Rat cerebral cortex membranes were prepared according to the method of Rasenick et al. [Nature, 294:560-562; 1981].
Membrane proteins were extracted sequentially from C6-2B or rat synaptic membranes as described [Yan et al., J. Neurochem., 66:1489-1495; 1996]. These membranes were stirred on ice in HEPES (15 mM, pH 7.4) containing 1% Triton X-100 for 60 min followed by centrifugation at 100,000 g for 60 min at 4° C. The supernatant was reserved (Triton X-100 extract), and the resulting pellet was resuspended in Tris (15 mM, pH 7.4) containing 1.4% Triton X-114 and 150 mM NaCl. The solution was stirred for 60 min at 4° C. and centrifuged for 30 min at 100,000 g in the cold. The supernatant was saved (Triton X-114 extract). These supernatants and remaining pellet (remainder) were subjected to sodium dodecyl sulfate (SDS)-polyacrylamide gel electophoresis (PAGE) using 10% gels. All of the extraction buffers contained 1 mM PMSF and 1 mM EGTA.
Rat cortex membrane, C6-2B cell membranes, or Triton extracts of each membrane preparation were subjected to SDS-PAGE followed by electrotransfer to polyvinylidene difluoride (PVDF) membrane. The PVDF membrane was incubated with a phosphate-buffered saline/Tween 20 Buffer (140 mM NaCl, […]. 0.1% Tween 20, pH 7.4) and 3% bovine serum albumin. The membrane was then incubated with polyclonal rabbit antisera against the various G protein subunits [RM (Gsα) or 116 (Gi1, Gi2, Gi3α)] at a 1:25,000 (RM) or 1:5,000 (116) dilution (see below for source of antibodies). […] Immunoreactivity was detected with an enhanced chemiluminescence (ECL) western blot detection system (Amersham) in accord with the manufacturer's instructions. The developed autoradiographs were analyzed by densitometry.
A membrane-enriched fraction was prepared (see Example 1), and membrane proteins were extracted sequentially with Triton X-100 (Tx 100) and Triton X-114 (Tx 114). Equal amounts of these extracts were subjected to SDS-PAGE and transferred to PVDF membrane. The long and short forms of Gsα (GsαL and GsαS) from different fractions were identified by immunodetection.
Experiments were conducted according to the method set forth in Example 1 to assess the effects of different antidepressants on the detergent extraction of Gsα from C6-2B glioma cells.
The ratios of the percentage of Gsα extracted by the two detergents in the treatment versus control groups were compared and are set forth in Table 2 as percentage of control (i.e., each Triton X-100 extract was compared with the untreated Triton X-100 extract; the same was done for Triton X-114 extracts as well as the remainder).

Row | SMILES | Basal adenylyl cyclase activity ([1]; gradient fractions) | Forskolin-stimulated adenylyl cyclase activity compared with control ([1]; gradient fractions 11 and 12, 10^−4 M forskolin) | GsαL in Triton X-114 extract, % of corresponding value in control group [2] | GsαS in Remainder, % of corresponding value in control group [2] [%] | GsαS in Triton X-100 extract, % of corresponding value in control group [2] | GsαS in Triton X-114 extract, % of corresponding value in control group [2]
1 | CNCCCN1c2ccccc2CCc2ccccc21 [Desipramine, desipramine] | unchanged | almost a twofold increase | – | – | – | –
2 | CNCCC(Oc1ccc(C(F)(F)F)cc1)c1ccccc1 (stereo not drawn) [Fluoxetine, fluoxetine] | – | – | 84.4 ± 2.9^b % | 99.7 ± 3.1 | 215.9 ± 30.9^a % | 92.2 ± 1.3^b %
